Patent US20250057961A1, “BLOOD-BRAIN BARRIER PENETRATING DRUG DELIVERY SYSTEM USING SIALYLLACTOSE” (GENECHEM INC., priority 2021, published 2025)
“Also recorded” adds a separate entry of the source. Like-named read-outs stand apart in the source and are kept apart here.

Assays:
[1] = Blood-brain barrier penetration experiment: brain fluorescence of Cy5.5-attached substances (IVIS spectrum CT, in vivo and extracted brain); details: for brain penetration (fluorescence signal in the brain): Cy5.5-attached substance, into the veins, up to 24 hours, FIGS. 1-3
Protocol: (§1) First, the fluorescent substance Cy5.5 (Genechem, Cat no. GCCD0064) was attached to each of lactose, 2,3-sialyllactose (GCB100) and 2,6-sialyllactose (GCB200), and each substance was dissolved and diluted in 10% DMSO, thus preparing samples (final DMSO concentration is approximately 2% of the total volume). After administering each sample at 1 mol/kg into the veins of BALB/c nude mice, the fluorescence signals in the brains of the nude mice were measured at different time points (1, 2, 4, 6, 8, and 24 hours) using the IVIS spectrum CT (Perkin Elmer).
(§2) Next, the fluorescent substance Cy5.5 (Genechem, Cat no. GCCD0064) was attached to each of sialic acid, 2,3-sialyllactose (GCB100) and 2,6-sialyllactose (GCB200), and each substance was dissolved and diluted in 10% DMSO, thus preparing samples (final DMSO concentration is approximately 2% of the total volume). After administering each sample at 1 mol/kg into the veins of BALB/c nude mice, the fluorescence signals in the brains of the nude mice were measured at different time points (10 min, 30 min, 1, 2, 4, 6, 8, and 24 hours) using the IVIS spectrum CT (Perkin Elmer). 24 hours after administration, the nude mice were perfused with saline solution, the brains were extracted, and fluorescence present in the brains was measured.
(§3) The experiment was conducted in the same manner as the above-described experiment on blood-brain barrier penetration of sialyllactose.
(§4) Here, Cy5.5 alone and gemcitabine attached to only Cy5.5 were used as controls. First, each material was dissolved and diluted in 10% DMSO, thus preparing samples (final DMSO concentration is approximately 2% of the total volume). After administering each sample at 1 mol/kg into the veins of BALB/c nude mice, the fluorescence signals in the brains of the nude mice were measured at different time points (10 min, 30 min, 1, 2, 4, 6, 8, and 24 hours) using the IVIS spectrum CT (Perkin Elmer). 24 hours after administration, the nude mice were perfused with saline solution, the brains were extracted, and fluorescence present in the brains was measured.

[2] = Brain tissue penetration and substance dissociation (LC-MS/MS of tissue homogenate supernatant); type: in vivo
Protocol: To examine the distribution and dissociation of sialyllactose-conjugated methotrexate in tissues, GCB017 was administered and the presence of GCB017 and its dissociates (linker-6′SL (L-6′SL) and linker) in the brain and pancreas was checked. Specifically, GCB017 was dissolved and diluted in 10% DMSO, thus preparing a sample (final DMSO concentration was approximately 2% of the total volume). The sample was administered intravenously (IV) at a dose of 80 mg/kg or administered orally (PO) at a dose of 80 mg/kg. Then, at different time points (0, 0.5, 2, and 4 hours), the animals were anesthetized, heart blood was collected, saline solution was perfused, and the brain and pancreas were extracted. Each of the extracted tissues was homogenized in 50 mM Tris-HCl buffer (pH 7.5) at a ratio of 1:5 and centrifuged at 3,000 rpm and 4° C. for 20 minutes, and the supernatant was collected and subjected to mass spectrometry (SCIEX Triple Quad 3500 LC-MS/MS system).
The sample was administered intravenously (IV) at a dose of 80 mg/kg or administered orally (PO) at a dose of 246 mg/kg. Then, at different time points (0, 0.5, 2, and 4 hours), the animals were anesthetized, heart blood was collected, saline solution was perfused, and the brain and pancreas were extracted. Each of the extracted tissues was homogenized in 50 mM Tris-HCl buffer (pH 7.5) at a ratio of 1:5 and centrifuged at 3,000 rpm and 4° C. for 20 minutes, and the supernatant was collected and subjected to mass spectrometry (SCIEX Triple Quad 3500 LC-MS/MS system).

[3] = tested on: U-87MG; assay: Anticancer efficacy in mouse brain cancer model (luciferase-expressing U-87MG transplanted into brain, optical imaging); type: in vivo; details: intravenously twice a week, 8 times for 4 weeks; GCB017 22 mol/kg; days 20, 24, 27; FIG. 13
Protocol: The brain cancer model was produced by transplanting U-87MG, a brain cancer cell line that expresses luciferase. For transplantation into the brain, each animal was anesthetized by isoflurane injection and fixed on a stereotaxic arm, and the head skin was incised vertically by about 1 cm and the injection site was exposed using a micro drill. The cell line was transferred into a 25-μl Hamilton syringe equipped with a 31-gauge needle, and then the cell line was transplanted at a rate of 1 i/min to an area 1 mm anterior, 2 mm lateral, and 3 mm deep based on bregma. After cell line transplantation, in order to prevent reflux and ensure good absorption, the syringe was maintained for about 10 minutes and separated, and the incision was sutured and disinfected. After confirming that the anesthesia had worn off, the animals were reared normally. Starting 1 week after model production, each of methotrexate and GCB017 was administered intravenously twice a week for a total of 8 times for 4 weeks, and the size of the brain tumor was measured by optical imaging (FIG. 13). […] In combination with the results of Examples 3-2 and 3-3 above, it is believed that the sialyllactose-methotrexate conjugate according to the present invention has an improved BBB penetration ability compared to methotrexate and inhibits tumor formation and growth.

[4] = mouse, in vivo
Protocol: as §1, §2, §3, §4

[5] = tested on: BxPC-3; details: 5, 10, 20 and 40 nM, 72 hours, FIG. 16A
[6] = tested on: PARP; details: BxPC-3, 5-40 nM, 72 hours, FIG. 16B
[7] = tested on: Caspase-3; details: BxPC-3, 5-40 nM, 72 hours, FIG. 16B

2,3-sialyllactose [GCB100]
brain penetration (fluorescence signal in the brain) [1]: well delivered to the brain, compared to lactose-bound Cy5.5

2,6-sialyllactose [GCB200]
brain penetration (fluorescence signal in the brain) [1]: well delivered to the brain, compared to lactose-bound Cy5.5; also recorded: the effect of 2,6-sialyllactose was higher than that of 2,3-sialyllactose

CCN1\C(=C/C=C/C=C/C2=[N+](CCCCCC(=O)O)c3ccc4c(S(=O)(=O)O)cc(S(=O)(=O)O)cc4c3C2(C)C)C(C)(C)c2c1ccc1c(S(=O)(=O)[O-])cc(S(=O)(=O)O)cc21 [Cy5.5, reference compound]
brain penetration (fluorescence signal in the brain) [1]: barely penetrated the blood-brain barrier
brain penetration (fluorescence signal in the brain) of sialyllactose-conjugated dopamine ([1]; Cy5.5-attached, controls Cy5.5-dopamine or Cy5.5, FIGS. 5, 6, 8, 9): barely detected in the brain

CC(=O)N[C@H]1[C@H]([C@H](O)[C@H](O)CO)O[C@@](OC[C@H]2O[C@@H](O[C@H]3[C@H](O)[C@@H](O)[C@H](OCCCCCCNC(=O)CC[C@H](NC(=O)c4ccc(N(C)Cc5cnc6nc(N)nc(N)c6n5)cc4)C(=O)O)O[C@@H]3CO)[C@H](O)[C@@H](O)[C@H]2O)(C(=O)O)C[C@@H]1O [GCB017]
presence of GCB017 and its dissociates in brain tissue ([2]; 80 mg/kg IV or 80 mg/kg PO): detected in the brain tissue not only when GCB017 was administered intravenously but also when administered orally
level at 2 h ([2]; brain, iv, 80 mg/kg, GCB017 80 mg/kg IV, 2 h, single animals): 52.7 ng/mL
level at 4 h ([2]; brain, po, 80 mg/kg, GCB017 80 mg/kg PO, 4 h, single animals): 30.3 ng/mL
size of the brain tumor [3]: tumor formation was delayed and the tumor size was also controlled
fluorescence signal in the brain of sialyllactose-conjugated methotrexate [4]: a strong fluorescence signal appeared

CN(Cc1cnc2nc(N)nc(N)c2n1)c1ccc(C(=O)N[C@@H](CCC(=O)O)C(=O)O)cc1 [methotrexate, reference compound]
size of the brain tumor [3]: the tumor size also tended to increase gradually starting from day 20
fluorescence signal in the brain of sialyllactose-conjugated methotrexate ([1]; Cy5.5-attached, time-dependent and extracted brain at 24 hours, FIGS. 11, 12): almost no fluorescence signal appeared in the brain

CC(=O)N[C@H]1[C@H]([C@H](O)[C@H](O)CO)OC(O)(C(=O)O)C[C@@H]1O (stereo partly drawn) [sialic acid, reference compound]
brain penetration (fluorescence signal in the brain) [4]: brain penetration remained at a similar level

gemcitabine-succinate-aminohexyl-6′SL [GCB034]
cell viability (anticancer effect) [5]: induce cancer cell death at all treatment concentrations, but also exhibited a higher anticancer effect than gemcitabine
decrease in the pro-form of PARP [6]: significant in a concentration-dependent manner
increase in Caspase-3 cleavage [7]: significant in a concentration-dependent manner
